# Patent publication US20140377340A1, “HLA-DR BINDING PEPTIDES AND THEIR USES” (priority 2007, published 2014)
# Ends that are not written are not given here.
# Legend:
# [1] = molecular target: T1, purified HLA DRB1*0405 (Homo sapiens, UniProt P01903+P01911, A100R/A169T/D86S/F76Y/I96L/K127E/L162R/M171V/N62H/P40V/Q125Y/R42H/S133A/S149N/S66Y/V115G/V209L/W38E); assay: HLA-DR radioligand binding inhibition assay, DRB1*0405; settings: IC50 nM purified HLA DRB1 *0405, purified HLA DRB1*0405
# T1 construct: purified from EBV transformed homozygous cell lines or single MHC allele transfected 721.221, C1R, or fibroblast lines; made in house
# Experimental: (§1) Instead, wells of an opaque white 96-well Optiplate (Packard) are coated with 3 μg (100 μl@ 30 μg/ml) of HLA-specific antibody (Ab) that “capture” complexes of radiolabeled MHC and unlabeled peptide transferred from the molecular binding assay plate in 100 μl of 0.05% NP40/PBS. After a 3-hour incubation period, the supernatant is decanted and scintillation fluid (Microscint 20) added. Captured complexes are then measured on a microplate scintillation and luminescence counter (TopCount NXTTM; Packard).
# (§2) HLA-DR purification. Fifteen distinct HLA-DR molecules were used in quantitative assays to measure the binding of peptides to solubilized HLA-DR molecules. […] Briefly, columns of inactivated Sepharose CL4B and Protein A Sepharose were used as pre-columns. HLA-DR molecules were captured by passage of lysates over LB3.1 monoclonal antibody (anti-HLA-DRA) columns. Antibody columns were washed with 10 mM Tris-HCL, pH8.0 with 1% (v/v) NP-40, followed by PBS containing 0.4% (w/v) n-octylglucoside.
# (§3) Briefly, 1-10 nM of radiolabeled peptide was co-incubated for 2 days at either room temperature or 37° C. with 1 μM to 1 nM purified HLA-DR molecules in the presence of a cocktail of protease inhibitors. Assays were performed at various pH conditions, ranging from pH 4 to pH 7. […] After incubation, the percentage of HLA-DR-bound radioactivity is determined by capturing HLA-DR/peptide complexes on Optiplates (Packard Instruments, Meriden, Conn.) coated with the LB3.1 antibody and determining bound counts per minute using the TopCount microscintillation counter (Packard Instruments).
# [2] = molecular target: T2, purified HLA DRB1*0101 (Homo sapiens, UniProt P01903+P01911, A100R/D57E/F55L/F60I/F76Y/I96L/L162R/M171V/P40L/Q125E/R42F/V115G/Y59C); assay: HLA-DR radioligand binding inhibition assay, DRB1*0101; settings: IC50 nM purified HLA DRB1 *0101, purified HLA DRB1*0101
# T2 construct: purified from EBV transformed homozygous cell lines or single MHC allele transfected 721.221, C1R, or fibroblast lines; made in house
# Experimental: as §1, §2, §3
# [3] = molecular target: T3, purified HLA DRB5*0101 (Homo sapiens, UniProt P01903+Q30154); assay: HLA-DR radioligand binding inhibition assay, DRB5*0101; settings: IC50 nM purified HLA DRB5 *0101, purified HLA DRB5*0101
# T3 construct: purified from EBV transformed homozygous cell lines or single MHC allele transfected 721.221, C1R, or fibroblast lines; made in house
# Experimental: as §1, §2, §3
# [4] = molecular target: T4, purified HLA DRB1*1101 (Homo sapiens, UniProt P01903+P01911, A100R/A169T/A87E/I96F/K41T/L162R/M171V/P40S/Q125H/Q178H/Q39Y/Q99D/R42S/S66Y/T262R/V115G/W38E); assay: HLA-DR radioligand binding inhibition assay, DRB1*1101; settings: IC50 nM purified HLA DRB1 *1101, purified HLA DRB1*1101
# T4 construct: purified from EBV transformed homozygous cell lines or single MHC allele transfected 721.221, C1R, or fibroblast lines; made in house
# Experimental: as §1, §2, §3
# [5] = molecular target: T5, purified HLA DRB1*1302 (Homo sapiens, UniProt P01903+P01911, A100E/A169T/K41T/L162R/M171V/P40S/Q125H/Q178H/Q39Y/Q99D/R42S/S66N/T262R/V115G/W38E/Y61H); assay: HLA-DR radioligand binding inhibition assay, DRB1*1302
# T5 construct: purified from EBV transformed homozygous cell lines or single MHC allele transfected 721.221, C1R, or fibroblast lines; made in house
# Experimental: as §1, §2, §3
# [6] = molecular target: T6, purified HLA DRB1*0401 (Homo sapiens, UniProt P01903+P01911, A100K/A169T/F76Y/I96L/K127E/L162R/M171V/N62H/P40V/Q125Y/R42H/S133A/S149N/S66Y/V115G/V209L/W38E); assay: HLA-DR radioligand binding inhibition assay, DRB1*0401; settings: IC50 nM purified HLA DRB1 *0401, purified HLA DRB1*0401
# T6 construct: purified from EBV transformed homozygous cell lines or single MHC allele transfected 721.221, C1R, or fibroblast lines; made in house
# Experimental: as §1, §2, §3
# [7] = molecular target: T7, purified HLA DRB1*0701 (Homo sapiens, UniProt P01903+P01911, A100R/A102G/A103Q/D57E/D86V/E43K/F76Y/K127E/L162R/M171V/P40G/Q125H/Q99D/R33Q/R42Y/R54Q/S133A/S66F/T210M/V115G/Y107V/Y59L/Y89S); assay: HLA-DR radioligand binding inhibition assay, DRB1*0701; settings: IC50 nM purified HLA DRB1 *0701, purified HLA DRB1*0701
# T7 construct: purified from EBV transformed homozygous cell lines or single MHC allele transfected 721.221, C1R, or fibroblast lines; made in house
# Experimental: as §1, §2, §3
# T4 sequence (P01903 26-254, other chains not shown): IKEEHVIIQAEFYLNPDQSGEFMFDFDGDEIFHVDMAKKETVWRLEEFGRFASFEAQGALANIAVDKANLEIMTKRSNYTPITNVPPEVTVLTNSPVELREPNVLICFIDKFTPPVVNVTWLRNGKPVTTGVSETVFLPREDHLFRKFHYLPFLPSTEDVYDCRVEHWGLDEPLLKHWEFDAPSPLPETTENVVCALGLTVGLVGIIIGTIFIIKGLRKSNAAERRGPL
Compound,IC50 [1] [nM],IC50 [2] [nM],IC50 [3] [nM],IC50 [4] [nM],IC50 [5] [nM],IC50 [6] [nM],IC50 [7] [nM]
CC(C)C[C@H](NC(=O)[C@H](C)NC(=O)[C@H](CC(C)C)NC(=O)[C@@H](N)CC(C)C)C(=O)N[C@@H](CC(C)C)C(=O)N1CCC[C@H]1C(=O)N1CCC[C@H]1C(=O)NCC(=O)N[C@@H](C)C(=O)N[C@@H](C)C(=O)N[C@@H](CO)C(=O)N[C@H](C(=O)N[C@@H](CCC(N)=O)C(=O)N[C@H](C(=O)N[C@@H](CS)C(=O)O)C(C)C)[C@@H](C)O [Peptide 1622.02],> 20000,17,17,,,,
CC[C@H](C)[C@H](NC(=O)[C@H](CC(C)C)NC(=O)[C@H](C)NC(=O)[C@H](CC(C)C)NC(=O)CN)C(=O)N[C@@H](Cc1c[nH]cn1)C(=O)N[C@@H](Cc1c[nH]cn1)C(=O)N[C@@H](CC(N)=O)C(=O)N[C@H](C(=O)N[C@@H](Cc1c[nH]cn1)C(=O)N[C@@H](CC(C)C)C(=O)N[C@@H](CS)C(=O)N[C@@H](Cc1ccccc1)C(=O)N[C@H](C(=O)N[C@@H](Cc1c[nH]cn1)C(=O)O)C(C)C)[C@@H](C)O [Peptide 9019.0058],,,,2800,18,414,
CC[C@H](C)[C@H](NC(=O)[C@H](CCCCN)NC(=O)[C@H](CCC(N)=O)NC(=O)[C@@H](N)CCC(N)=O)C(=O)N[C@@H](CCCNC(=N)N)C(=O)N[C@@H](CCCCN)C(=O)N[C@@H](Cc1ccc(O)cc1)C(=O)N[C@H](C(=O)N[C@@H](CCSC)C(=O)N[C@@H](CCCNC(=N)N)C(=O)N[C@@H](CCCNC(=N)N)C(=O)N[C@@H](CC(C)C)C(=O)N[C@@H](CC(C)C)C(=O)N[C@@H](CCC(N)=O)C(=O)N[C@@H](CCC(=O)O)C(=O)O)[C@@H](C)O [Peptide 9019.0070],,,340,,,,
CC[C@H](C)[C@H](NC(=O)[C@H](CCCNC(=N)N)NC(=O)[C@@H](N)CCSC)C(=O)N[C@@H](CC(C)C)C(=O)N[C@@H](CCCCN)C(=O)N[C@@H](CCC(=O)O)C(=O)N[C@H](C(=O)N[C@@H](CCC(=O)O)C(=O)N[C@@H](CC(C)C)C(=O)N[C@@H](CCCNC(=N)N)C(=O)N[C@@H](CCCCN)C(=O)N[C@H](C(=O)N[C@@H](CCCCN)C(=O)N[C@H](C(=O)N[C@@H](CC(C)C)C(=O)O)C(C)C)C(C)C)[C@@H](C)O [Peptide 9019.0072],,,,2130,,,
CSCC[C@H](NC(=O)[C@H](CC(C)C)NC(=O)[C@H](CCC(N)=O)NC(=O)[C@@H](NC(=O)[C@@H](NC(=O)[C@H](CC(C)C)NC(=O)[C@H](CCC(N)=O)NC(=O)[C@@H](NC(=O)[C@@H](N)[C@@H](C)O)C(C)C)C(C)C)[C@@H](C)O)C(=O)N1CCC[C@H]1C(=O)N[C@@H](Cc1ccc(O)cc1)C(=O)NCC(=O)N[C@@H](CS)C(=O)N[C@@H](CC(C)C)C(=O)N[C@@H](CC(C)C)C(=O)O [Peptide 9019.0080],,,3000,,,,
CC[C@H](C)[C@H](NC(=O)[C@H](CCC(N)=O)NC(=O)[C@H](CCSC)NC(=O)[C@H](CS)NC(=O)[C@H](Cc1c[nH]c2ccccc12)NC(=O)[C@H](CC(N)=O)NC(=O)[C@H](CC(C)C)NC(=O)[C@@H](N)CC(C)C)C(=O)N[C@@H](C)C(=O)N[C@@H](CCCCN)C(=O)NCC(=O)N[C@@H](CCSC)C(=O)N[C@@H](CO)C(=O)N[C@@H](Cc1ccc(O)cc1)C(=O)N[C@@H](CC(C)C)C(=O)O [Peptide 9019.0082],,,92,,,,380
CSCC[C@H](NC(=O)CNC(=O)[C@H](CC(C)C)NC(=O)[C@H](CC(=O)O)NC(=O)CNC(=O)[C@@H](N)CC(=O)O)C(=O)NCC(=O)N[C@@H](C)C(=O)N[C@@H](C)C(=O)N[C@@H](CCCCN)C(=O)NCC(=O)N[C@@H](CC(C)C)C(=O)N[C@@H](CCC(N)=O)C(=O)N[C@@H](CO)C(=O)N[C@@H](CC(C)C)C(=O)O [Peptide 9019.0097],5800,110,,,3230,,
CC[C@H](C)[C@H](NC(=O)[C@@H](NC(=O)[C@@H]1CCCN1C(=O)[C@H](C)N)[C@@H](C)O)C(=O)N[C@@H](CO)C(=O)N1CCC[C@H]1C(=O)N[C@@H](CC(C)C)C(=O)N[C@@H](CC(N)=O)C(=O)N[C@H](C(=O)N[C@@H](CO)C(=O)N[C@@H](Cc1ccc(O)cc1)C(=O)N[C@@H](CCCNC(=N)N)C(=O)N[C@@H](CO)C(=O)NCC(=O)N[C@@H](CCC(=O)O)C(=O)O)[C@@H](C)O [Peptide 9019.0121],5990,2430,,,125,295,
PDSLPDLSVFQNLQV [Peptide 9019.0051],,> 20000,,,> 20000,> 20000,> 20000

# The remaining lines, values ahead:
IC50 [1] [nM],IC50 [2] [nM],IC50 [3] [nM],IC50 [4] [nM],IC50 [5] [nM],IC50 [6] [nM],IC50 [7] [nM],Compound
,1460,,,286,,> 20000,CSCC[C@H](NC(=O)[C@H](C)NC(=O)[C@H](CCCNC(=N)N)NC(=O)[C@H](CC(C)C)NC(=O)[C@@H](NC(=O)[C@H](CCCNC(=N)N)NC(=O)[C@H](CC(=O)O)NC(=O)[C@H](CC(N)=O)NC(=O)[C@H](CC(C)C)NC(=O)[C@H](CC(C)C)NC(=O)[C@H](CC(N)=O)NC(=O)[C@H](C)NC(=O)[C@@H](N)CC(=O)O)C(C)C)C(=O)N[C@@H](CC(C)C)C(=O)N[C@@H](CCCCN)C(=O)O [Peptide 9019.0146]
,,36,61,,,17,CC[C@H](C)[C@H](NC(=O)[C@@H](NC(=O)[C@H](CCC(=O)O)NC(=O)[C@H](CCCCN)NC(=O)[C@H](CCSC)NC(=O)[C@H](CCCCN)NC(=O)[C@H](CO)NC(=O)[C@H](C)NC(=O)[C@@H](NC(=O)[C@H](Cc1ccccc1)NC(=O)[C@H](CCSC)NC(=O)[C@H](CS)NC(=O)[C@@H](N)[C@@H](C)O)C(C)C)[C@@H](C)O)C(=O)N1CCC[C@H]1C(=O)N[C@@H](CC(C)C)C(=O)O [Peptide 9019.0157]
> 20000,130,,,550,> 20000,220,CC[C@H](C)[C@H](NC(=O)[C@@H](NC(=O)[C@H](CCC(=O)O)NC(=O)[C@H](CCCCN)NC(=O)[C@H](CCSC)NC(=O)[C@H](CCCCN)NC(=O)[C@H](CO)NC(=O)[C@H](C)N)[C@@H](C)O)C(=O)N1CCC[C@H]1C(=O)N[C@@H](CC(C)C)C(=O)N[C@H](C(=O)N[C@@H](C)C(=O)N[C@@H](CCC(=O)O)C(=O)N[C@@H](CCCCN)C(=O)N[C@@H](CC(C)C)C(=O)O)[C@@H](C)O [Peptide 9019.0158]
6480,,,16800,,,3100,CC(C)C[C@H](NC(=O)CNC(=O)[C@H](CC(C)C)NC(=O)[C@H](Cc1c[nH]cn1)NC(=O)[C@H](Cc1c[nH]cn1)NC(=O)[C@H](CCCCN)NC(=O)CN)C(=O)N[C@@H](CCC(=O)O)C(=O)N[C@@H](CCC(=O)O)C(=O)N1CCC[C@H]1C(=O)N[C@@H](CCCCN)C(=O)N[C@@H](CCCCN)C(=O)N[C@@H](CC(C)C)C(=O)N[C@@H](CCCNC(=N)N)C(=O)N1CCC[C@H]1C(=O)O [Peptide 9019.0187]
,1500,,,9170,6780,15600,ELPLQALVMGEGTCE [Peptide 9019.0182]
,1910,,,8940,6540,> 20000,LPRVGCPALPLPPPP [Peptide 9019.0173]
